Values after ≈ are worked out from the molar mass of the structure shown. Where two headings read alike, the source gives them in different places. Where only a bound is given, the exact number is not on record here.

One data set deals with SK-N-SH (Neuroblast). Briefly: Growth inhibition of human cancer cell line SK-N-SH. The format is cell-based. The settings on record: Table I.
Another data set relates to BXPC-3 (Pancreas-a). Briefly: Growth inhibition of human cancer cell line BXPC-3. The format is cell-based. The protocol:
(§1) 3-(3′,4′,5′-Trimethoxybenzoyl)-2-(4′-methoxyphenyl)-6-methoxyindole was evaluated in terms of growth inhibitory activity against several human cancer cell lines, including pancreas, ovarian, CNS, lung-NSC, colon, and prostate lines. The assay used is described in Monks et al. Briefly, the cell suspensions, diluted according to the particular cell type and the expected target cell density (5,000-40,000 cells per well based on cell growth characteristics), were added by pipet (100 μl) to 96-well microtiter plates. Inoculates were allowed a preincubation time of24-28 hours at 37° C. for stabilization. Incubation with the inhibitor compounds lasted for 48 hours in 5% CO2 atmosphere and 100% humidity. Determination of cell growth was done by in situ fixation of cells, followed by staining with a protein-binding dye, sulforhodamine B (SRB), which binds to the basic amino acids of cellular macromolecules. The solubilized stain was measured spectrophotometrically. G150 is defined as the dosage required to inhibit tumor cell growth by 50%.

Data set [1] has as its system NCI-H460 (Lung-NSC). Briefly: cells. The format is cell-based. The protocol: as §1
The subject of another data set is DU-145 (Prostate). The data set can be described thus: Growth inhibition of human cancer cell line DU-145. The format is cell-based. The procedure:
as §1

Another data set has as its system SW1736 (Thyroid ca). Briefly: Growth inhibition of human cancer cell line SW1736. The class given is cell-based. The following applies: SW-1736, SW1736, Table I.
In the next data set the test system is FADU (Pharynx-sqam). Briefly: Growth inhibition of human cancer cell line FADU. The following applies: Table I. The format is cell-based.
The subject of data set [2] is T1, purified tubulin.
T1 construct: other: at 4 pM
The data set can be described thus: Inhibition of tubulin polymerization assay. The class given is biochemical, bovine. The protocol:
IC50 values for tubulin polymerization were determined according to the procedure described in Bai et al. Purified tubulin is obtained from bovine brain cells as described in Hamel and Lin. Various amounts of inhibitor were preincubated for 15 minutes at 37° C. with purified tubulin. After the incubation period, the reaction was cooled and GTP was added to induce tubulin polymerization. Polymerization was then monitored in a Gilford spectrophotometer at 350 nm. The final reaction mixtures (0.25 ml) contained 1.5 mg/ml tubulin, 0.6 mg/ml microtubule-associated proteins (MAPs), 0.5 mM GTP, […], 4% DMSO and 0.1M 4-morpholineethanesulfonate buffer (MES, pH 6.4). IC50 is the amount of inhibitor needed to inhibit tubulin polymerization 50% with respect to the amount of […] that occurs in the absence of inhibitor.

Data set [3] concerns purified tubulin. The settings on record: reported by Pettit and co-workers, cited from earlier work; for IC50: read-out: IC50 for inhibition of tubulin polymerization.
The test system of data set [4] is NCI-H460 (Lung-NSC). The settings on record: data from synthesis of phenstatin phosphate (Pettit); cited from earlier work.
Data set [5] has as its system KM20L2 (Colon). The settings on record: data from synthesis of phenstatin phosphate (Pettit); cited from earlier work.
The subject of data set [6] is OVCAR-3 (Ovarian). The following applies: data from synthesis of phenstatin phosphate (Pettit); cited from earlier work.
The subject of data set [7] is SF-295 (CNS). The settings on record: data from synthesis of phenstatin phosphate (Pettit); cited from earlier work.
In data set [8] the test system is OVCAR-3 (Ovarian). Briefly: Growth inhibition of human cancer cell line OVCAR-3. The format is cell-based. The procedure:
as §1

Data set [9] deals with KM20L2 (Colon). Briefly: Growth inhibition of human cancer cell line KM20L2. The format is cell-based. The protocol:
as §1

Another data set deals with P388 leukemia cells. Briefly: Cytotoxic assay with P388 leukemia cells. The format is cell-based.
The subject of data set [10] is SF-295 (CNS). Briefly: Growth inhibition of human cancer cell line SF-295. The format is cell-based. The procedure: as §1
Setting [11] is: read-out: IC50 for inhibition of tubulin polymerization.

As a reminder, the GI50 is the concentration at which growth is held to half of that of the control. `COc1ccc(-c2c(C(=O)c3cc(OC)c(OC)c(OC)c3)oc3cc(OC)ccc23)cc1` [2-(3′,4′,5′-trimethoxybenzoyl)-3-(4′-methoxyphenyl)-6-methoxybenzo[b]furan, reference compound]: the concentration for 50% growth inhibition (GI50) in the data set on SK-N-SH (Neuroblast) amounted to 0.025 µg/mL (≈ 0.0557 µM); in the data set with BXPC-3 (Pancreas-a) (Homo sapiens, BXPC-3, Table I, read-out: GI50) it was 0.038 µg/mL (≈ 0.0847 µM); with NCI-H460 (Lung-NSC) [1] (Homo sapiens, NCI-H460, Table I, read-out: GI50) it was 0.041 µg/mL (≈ 0.0914 µM); in the data set with DU-145 (Prostate) (Homo sapiens, DU-145, Table I, read-out: GI50), 0.062 µg/mL (≈ 0.138 µM); in the data set on SW1736 (Thyroid ca), 0.047 µg/mL (≈ 0.105 µM); in the data set on FADU (Pharynx-sqam), 0.035 µg/mL (≈ 0.078 µM).

Turning to `COc1ccc(-c2[nH]c3cc(OC)ccc3c2C(=O)c2cc(OC)c(OC)c(OC)c2)cc1` [3-(3′,4′,5′-trimethoxybenzoyl)-2-(4′-methoxyphenyl)-6-methoxyindole], in the data set with purified tubulin [2] (setting [11]), the IC50 is 0.5 to 1.5 µM.

As to `COc1ccc(/C=C\c2cc(OC)c(OC)c(OC)c2)cc1N` [Amine-CA-4 8], in the data set with NCI-H460 (Lung-NSC) [1] (Homo sapiens, NCI-H460, read-out: GI50), the GI50 is 0.00068 µg/mL (≈ 0.00216 µM). Further, in the data set with purified tubulin [2] (setting [11]), the IC50 was found to be 1.2 ± 0.02 µM.

Take `COc1ccc(/C=C\c2cc(OC)c(OC)c(OC)c2)cc1OP(=O)(O)O` [Combretastatin A-4 Prodrug]: in the data set with purified tubulin [3], the “inhibition of tubulin polymerization” value is listed as “no inhibition”. For the same compound, the IC50 in the data set on purified tubulin [3] is over 80 µM. Besides, the GI50 with NCI-H460 (Lung-NSC) [4] is 0.029 µg/mL (≈ 0.0732 µM); in the data set on KM20L2 (Colon) [5] it was 0.34 µg/mL (≈ 0.858 µM); with OVCAR-3 (Ovarian) [6] it was 0.023 µg/mL (≈ 0.058 µM); in the data set with SF-295 (CNS) [7], 0.036 µg/mL (≈ 0.0908 µM).

Take `COc1ccc(-c2[nH]c3cc(OC)ccc3c2C(=O)c2cc(OC)c(OC)c(OC)c2)cc1` [Indole-based Ligand 33, 3-(3′,4′,5′-trimethoxybenzoyl)-2-(4′-methoxyphenyl)-6-methoxyindole]: the GI50 with OVCAR-3 (Ovarian) [8] (Homo sapiens, OVCAR-3, 48 hours, SRB, read-out: GI50) is 0.0024 µg/mL (≈ 0.00536 µM); in the data set on KM20L2 (Colon) [9] (Homo sapiens, KM-20L2, KM20L2, 48 hours, SRB, read-out: GI50), 0.0017 µg/mL (≈ 0.0038 µM); with BXPC-3 (Pancreas-a) (Homo sapiens, BXPC-3, 48 hours, SRB, read-out: GI50) it was 0.002 µg/mL (≈ 0.00447 µM); with NCI-H460 (Lung-NSC) [1] (Homo sapiens, NCI-H460, 48 hours, SRB, read-out: GI50) it was 0.0026 µg/mL (≈ 0.00581 µM); in the data set on SF-295 (CNS) [10] (Homo sapiens, SF-295, 48 hours, SRB, read-out: GI50), 0.0024 µg/mL (≈ 0.00536 µM); in the data set with DU-145 (Prostate) (Homo sapiens, DU-145, 48 hours, SRB, read-out: GI50), 0.0023 µg/mL (≈ 0.00514 µM). Further, in the data set on P388 leukemia cells (P388 leukemia cells), the “ED50 (effective dosage required to inhibit 50% of cell growth)” value was 0.0133 µg/mL.

Consider `COc1ccc(C(=O)c2cc(OC)c(OC)c(OC)c2)cc1OP(=O)(O)O` [Phenstatin Prodrug], for which the “activity in inhibition of tubulin polymerization compared to phenstatin” value in the data set on purified tubulin [3] is given as 40%. Moreover, the IC50 in the data set with purified tubulin [3] is 21 ± 3 µM. The GI50 with NCI-H460 (Lung-NSC) [4] is 0.035 µg/mL (≈ 0.0879 µM); in the data set with KM20L2 (Colon) [5], 0.27 µg/mL (≈ 0.678 µM); with OVCAR-3 (Ovarian) [6], 0.0025 µg/mL (≈ 0.00628 µM); in the data set on SF-295 (CNS) [7] it was 0.012 µg/mL (≈ 0.0301 µM).

On to `COc1ccc(C(=O)c2cc(OC)c(OC)c(OC)c2)cc1O` [Phenstatin, phenstatin], for which the IC50 in the data set with purified tubulin [3] is 1 ± 0.2 µM. Moreover, the concentration for 50% growth inhibition (GI50) with NCI-H460 (Lung-NSC) [4] is 0.0057 µg/mL (≈ 0.0179 µM); in the data set on KM20L2 (Colon) [5], 0.0004 µg/mL (≈ 0.00126 µM); in the data set with OVCAR-3 (Ovarian) [6], 0.0023 µg/mL (≈ 0.00723 µM); with SF-295 (CNS) [7], 0.052 µg/mL (≈ 0.163 µM).

For orientation: LC50 means the concentration lethal to half of the exposed cells or organisms. A low value points to a more lethal substance. Usually TGI stands for the concentration giving total growth inhibition. High values mean lower sensitivity of the cells, low ones greater sensitivity of the cells. In the case of `CCOP(=O)(Nc1cc(/C=C\c2cc(OC)c(OC)c(OC)c2)ccc1OC)OCC` [Phosphoramidate Analog 10, (Z)-1-(3′-Diethylphosphoramidate-4′-methoxyphenyl)-2-(3″,4″,5″-trimethoxyphenyl)ethene], the GI50 worked out at 0.19 µg/mL (≈ 0.421 µM) in the data set with OVCAR-3 (Ovarian) [8] (OVCAR-3); 0.28 µg/mL (≈ 0.62 µM) with KM20L2 (Colon) [9] (KM20L2); 0.15 µg/mL (≈ 0.332 µM) in the data set with BXPC-3 (Pancreas-a) (BXPC-3); 0.35 µg/mL (≈ 0.775 µM) in the data set with NCI-H460 (Lung-NSC) [1] (NCI-H460); 0.31 µg/mL (≈ 0.687 µM) in the data set on P388 leukemia cells (P388); 0.24 µg/mL (≈ 0.532 µM) with SF-295 (CNS) [10] (SF-295). The GI50 in the data set on DU-145 (Prostate) (DU-145) stood at 0.26 µg/mL (≈ 0.576 µM). The LC50 in the data set with OVCAR-3 (Ovarian) [8] (OVCAR-3), in the data set on KM20L2 (Colon) [9] (KM20L2), in the data set with BXPC-3 (Pancreas-a) (BXPC-3), in the data set on NCI-H460 (Lung-NSC) [1] (NCI-H460), with SF-295 (CNS) [10] (SF-295) and in the data set on DU-145 (Prostate) (DU-145) was over 10 µg/mL each time. In addition, the TGI was 0.86 µg/mL (≈ 1.9 µM) in the data set on OVCAR-3 (Ovarian) [8] (OVCAR-3); 0.61 µg/mL (≈ 1.35 µM) in the data set on KM20L2 (Colon) [9] (KM20L2); 0.57 µg/mL (≈ 1.26 µM) in the data set with BXPC-3 (Pancreas-a) (BXPC-3); over 10 µg/mL in the data set on NCI-H460 (Lung-NSC) [1] (NCI-H460); over 10 µg/mL with SF-295 (CNS) [10] (SF-295); 0.26 µg/mL (≈ 0.576 µM) with DU-145 (Prostate) (DU-145). The “activity in inhibition of tubulin polymerization” value in the data set with purified tubulin [2] was “little if any activity”.

As for `COc1ccc(/C=C\c2cc(OC)c(OC)c(OC)c2)cc1O` [combretastatin A-4, reference compound], the values for the IC50 in the data set on purified tubulin [3] and in the data set with purified tubulin [2] (read-out: 50% inhibition of the maximum tubulin assembly rate) were […] and […], respectively.

(Values after patent US6849656B1, “Indole-containing and combretastatin-related anti-mitotic and anti-tubulin polymerization agents” (Baylor University, priority 1999, dated 2005).)
